Laboratory results taken from ChEMBL document CHEMBL3526000 (Drug Metab Dispos, 2012).

Legend:
Type in all cases: ADME
Settings in all cases: recombinant enzyme, 1 h
[1] = target: T1, UDP-glucuronosyltransferase 1A8 (Homo sapiens, UniProt Q9HAW9); test: Drug metabolism assessed as recombinant human UGT1A8 assessed as O-glucuronidation at 100 uM incubated for 60 mins by LC-MS/MS analysis
T1 sequence (Q9HAW9 whole entry): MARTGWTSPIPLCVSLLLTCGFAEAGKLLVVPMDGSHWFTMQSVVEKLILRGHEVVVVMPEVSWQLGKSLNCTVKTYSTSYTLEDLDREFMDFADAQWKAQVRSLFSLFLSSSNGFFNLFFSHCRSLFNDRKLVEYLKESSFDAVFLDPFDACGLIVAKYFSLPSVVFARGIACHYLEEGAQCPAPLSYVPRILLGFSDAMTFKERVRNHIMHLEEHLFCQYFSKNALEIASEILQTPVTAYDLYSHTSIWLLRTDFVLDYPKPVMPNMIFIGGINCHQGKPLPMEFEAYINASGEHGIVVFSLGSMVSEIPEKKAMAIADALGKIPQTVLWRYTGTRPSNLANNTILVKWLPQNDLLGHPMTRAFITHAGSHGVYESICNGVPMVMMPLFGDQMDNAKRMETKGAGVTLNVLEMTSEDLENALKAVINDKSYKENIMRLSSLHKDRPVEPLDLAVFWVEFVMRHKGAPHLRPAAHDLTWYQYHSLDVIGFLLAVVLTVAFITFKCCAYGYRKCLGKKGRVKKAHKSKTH

[2] = target: T2, UDP-glucuronosyltransferase 1A6 (Homo sapiens, UniProt P19224); test: Drug metabolism assessed as recombinant human UGT1A6 assessed as N-glucuronidation at 100 uM incubated for 60 mins by LC-MS/MS analysis
T2 sequence (P19224 whole entry): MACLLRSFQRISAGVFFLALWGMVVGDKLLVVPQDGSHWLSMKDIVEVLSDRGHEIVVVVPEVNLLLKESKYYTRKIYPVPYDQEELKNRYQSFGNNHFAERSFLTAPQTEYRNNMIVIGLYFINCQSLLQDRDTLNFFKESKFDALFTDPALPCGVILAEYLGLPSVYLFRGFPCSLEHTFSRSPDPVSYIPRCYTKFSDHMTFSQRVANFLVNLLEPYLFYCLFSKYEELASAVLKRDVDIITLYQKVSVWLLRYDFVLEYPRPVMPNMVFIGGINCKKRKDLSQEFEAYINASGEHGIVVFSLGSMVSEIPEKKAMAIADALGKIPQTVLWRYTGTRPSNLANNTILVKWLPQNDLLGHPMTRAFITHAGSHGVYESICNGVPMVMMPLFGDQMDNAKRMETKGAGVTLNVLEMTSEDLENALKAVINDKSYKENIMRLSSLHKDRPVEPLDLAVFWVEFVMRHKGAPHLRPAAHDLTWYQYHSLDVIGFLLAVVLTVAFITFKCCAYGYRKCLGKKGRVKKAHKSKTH

[3] = target: T3, UDP-glucuronosyltransferase 1A7 (Homo sapiens, UniProt Q9HAW7); test: Drug metabolism assessed as recombinant human UGT1A7 assessed as N-glucuronidation at 100 uM incubated for 60 mins by LC-MS/MS analysis
T3 sequence (Q9HAW7 whole entry): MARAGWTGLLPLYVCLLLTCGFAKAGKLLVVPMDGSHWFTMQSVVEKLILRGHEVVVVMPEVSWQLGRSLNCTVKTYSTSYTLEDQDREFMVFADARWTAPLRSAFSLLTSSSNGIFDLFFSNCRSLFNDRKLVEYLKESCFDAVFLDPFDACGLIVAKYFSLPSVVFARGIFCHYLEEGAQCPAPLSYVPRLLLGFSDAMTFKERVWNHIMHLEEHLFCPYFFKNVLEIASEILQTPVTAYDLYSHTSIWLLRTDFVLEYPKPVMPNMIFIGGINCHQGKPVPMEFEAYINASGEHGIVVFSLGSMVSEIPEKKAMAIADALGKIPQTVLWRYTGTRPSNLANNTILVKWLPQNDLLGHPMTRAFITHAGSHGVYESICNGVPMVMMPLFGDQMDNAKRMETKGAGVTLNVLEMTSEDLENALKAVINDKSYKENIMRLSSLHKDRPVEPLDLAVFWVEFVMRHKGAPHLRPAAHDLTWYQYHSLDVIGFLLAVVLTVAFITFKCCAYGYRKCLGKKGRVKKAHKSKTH

[4] = target: T2, UDP-glucuronosyltransferase 1A6; test: Drug metabolism assessed as recombinant human UGT1A6 assessed as O-glucuronidation at 100 uM incubated for 60 mins by LC-MS/MS analysis
[5] = target: T4, UDP-glucuronosyltransferase 2B4 (Homo sapiens, UniProt P06133); test: Drug metabolism assessed as recombinant human UGT2B4 assessed as N-glucuronidation at 100 uM incubated for 60 mins by LC-MS/MS analysis
T4 sequence (P06133 whole entry): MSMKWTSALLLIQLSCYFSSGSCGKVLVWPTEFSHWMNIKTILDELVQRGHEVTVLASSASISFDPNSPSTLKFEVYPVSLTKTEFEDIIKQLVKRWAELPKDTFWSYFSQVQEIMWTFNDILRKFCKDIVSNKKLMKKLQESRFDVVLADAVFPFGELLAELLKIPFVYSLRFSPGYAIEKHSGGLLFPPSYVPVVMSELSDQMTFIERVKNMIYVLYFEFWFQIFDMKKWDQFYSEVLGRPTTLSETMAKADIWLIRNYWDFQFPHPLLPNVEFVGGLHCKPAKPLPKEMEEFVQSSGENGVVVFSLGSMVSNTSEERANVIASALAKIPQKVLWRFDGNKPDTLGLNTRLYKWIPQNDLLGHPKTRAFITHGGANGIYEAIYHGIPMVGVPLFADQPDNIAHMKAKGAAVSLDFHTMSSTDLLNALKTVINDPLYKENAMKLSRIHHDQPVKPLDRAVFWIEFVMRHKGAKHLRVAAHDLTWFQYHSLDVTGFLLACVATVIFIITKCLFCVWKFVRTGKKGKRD

[6] = target: T5, UDP-glucuronosyltransferase 2B17 (Homo sapiens, UniProt O75795); test: Drug metabolism assessed as recombinant human UGT2B17 assessed as N-glucuronidation at 100 uM incubated for 60 mins by LC-MS/MS analysis
T5 sequence (O75795 whole entry): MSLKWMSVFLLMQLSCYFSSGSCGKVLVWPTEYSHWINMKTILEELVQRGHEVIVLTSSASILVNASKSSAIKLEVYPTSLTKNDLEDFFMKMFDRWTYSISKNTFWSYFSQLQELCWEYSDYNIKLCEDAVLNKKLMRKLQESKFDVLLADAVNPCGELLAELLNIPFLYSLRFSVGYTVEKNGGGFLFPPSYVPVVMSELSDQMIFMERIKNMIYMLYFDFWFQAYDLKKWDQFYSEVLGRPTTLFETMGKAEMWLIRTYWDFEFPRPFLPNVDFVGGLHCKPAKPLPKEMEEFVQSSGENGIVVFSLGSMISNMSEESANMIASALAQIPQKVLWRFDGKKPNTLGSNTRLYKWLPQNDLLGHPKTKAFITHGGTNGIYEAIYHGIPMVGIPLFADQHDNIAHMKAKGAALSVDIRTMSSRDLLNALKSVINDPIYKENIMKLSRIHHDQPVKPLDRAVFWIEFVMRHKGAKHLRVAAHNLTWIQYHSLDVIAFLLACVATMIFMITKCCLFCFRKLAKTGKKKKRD

Measured: Drug metabolism

O=C(CCCN1CCC(O)(c2ccc(Cl)cc2)CC1)c1ccc(F)cc1 [HALOPERIDOL]
metabolite_not_detected: all assays above
